Values joined by “and” are separate entries in the source; they are usually repeats but may differ in a detail not shown here. Identical values can stand only once. Counter-ions that a name gives are not always drawn. Like-named read-outs stand apart in the source and are kept apart here.
Legend:
[1] = tested on: SERPINE1prom-Luc reporter in NAMEC8 cells; test: Dual-Glo luciferase assay of SERPINE1prom-Luc reporter (FF/Ren); type: cell-based, human; conditions: for activity at 10 µM: Homo sapiens, 72 h, read-out: Avr FF/Renilla from DMSO; for dose-dependent change of SERPINE1 promoter activity: dose response (metabolic hits 10 nM to 2 μM; epigenetic hits six concentrations)
From the text: pGreenFire1-mCMV was cut using ClaI and SpeI and gel purified. Promoter sequences of genes Zeb1, Serpine1, CDH1, CD24, CD44, CD166 were amplified from human genomic DNA with pre-designed primers containing ClaI and SpeI restriction cut sites using AccuPrime Taq DNA Polymerase (Thermo Fisher Scientific). PCR products were then digested with restriction enzymes and gel-purified. Vector was ligated with PCR insert using Quick Ligase (Fermentas) and transformed into Stb12 competent cells. Colonies were picked and inoculated into TB media with ampicillin. Plasmids were then isolated using a plasmid miniprep kit (Qiagen) and sent for sequencing (1 stBASE Laboratories). After verifying the plasmid sequence, transfection into HEK293 cells was carried out to generate lentivirus. Transfection was carried out using FuGENE 6 (Promega). Viral supernatant was harvested at 24 h and 48 h. NAMEC8 cells were then infected twice with virus using polybrene ([…]) and checked for good transduction efficiency using Dual-Glo Luciferase System (Promega).
Stock plates of compound libraries were kindly prepared by GIS CHiP facility at 1 mM concentration in DMSO. NAMEC8-SERPINE1prom-Luc cells were seeded into 384 well plates at a density of 700 cells/well in a total volume of 50 μl, using an automated dispensing system (BioTek). 0.5 μl of compounds were then added to the wells the following day using a robotic pin transfer with a Bravo workstation (Agilent Technologies). Cells were then grown for 3 days and promoter-luciferase activity was measured using the Dual-Glo Luciferase System (Promega).
Assay was carried out according to manufacturer's instructions. To measure luciferase activity in 384 well plates, media was first removed from the plate. Firefly luciferase activity was determined by adding 30 μl Dual-Glo Luciferase substrate (Promega) to the wells and incubated for 10 min before measuring luminescence using a TECAN M1000 Pro plate reader. 15 μl Dual-Glo Stop & Glo substrate was then added to the wells, incubated for 10 min and measuring luminescence on the plate reader to determine Renilla luciferase activity. Promoter luciferase activity is then calculated by taking Firefly luciferase over Renilla luciferase.

[2] = tested on: NAMEC8-SERPINE1prom-Luc cells; test: Renilla-luciferase (constitutive CMV promoter) readout for cell numbers; type: cell-based, human; conditions: for viability at 10 µM: Homo sapiens, 72 h, read-out: % Avr Renilla from DMSO
[3] = primary screen, NAMEC8-SERPINE1prom-Luc cells grown 3 days with compound, relative to DMSO
[4] = primary screen, Renilla as readout for cell numbers, relative to DMSO
[5] = primary screen, […], relative to DMSO

Compound | activity at 10 µM [1, 3] | viability at 10 µM [2, 4] | Avr FF/Renilla from DMSO [1, 3] | % Avr Renilla from DMSO [2, 4] | further results
CCCn1c(=O)c2[nH]c(-c3ccc(S(=O)(=O)O)cc3)nc2n(CCC)c1=O [1,3-Dipropyl-8-p-sulfophenylxanthine] | 61% | 103% | – | – | –
O=c1[nH]c(=O)n([C@H]2C[C@H](O)[C@@H](CO)O2)cc1Br [5-Bromo-2′-deoxyuridine] | 67% | 65.7% | – | – | –
CCCCC[C@H](O)/C=C/[C@H]1[C@H](O)CC(=O)[C@@H]1CC(=O)CCCCC(=O)O [6-keto Prostaglandin E1] | – | – | 0.55 | 79.67% | –
CCCCC/C=C\C=C1\C(=O)C[C@H](O)[C@@H]1C/C=C\CCCC(=O)O [15-deoxy-_12,14-Prostaglandin D2] | – | – | 0.57 | 68.09% | –
CCCCC(C)(C)[C@H](O)/C=C/[C@H]1C(=O)C[C@H](O)[C@@H]1C/C=C\CCCC(=O)O [16,16-dimethyl Prostaglandin D2] | – | – | 0.48 | 52.62% | –
O=C(O)CCC/C=C\C[C@H]1C(=O)C=C[C@@H]1/C=C/[C@@H](O)COc1ccccc1 [16-phenoxy tetranor Prostaglandin A2] | – | – | 0.59 | 82.64% | –
Cc1cccc(-c2nn(C(=S)Nc3ccccc3)cc2-c2ccnc3ccccc23)n1 [A83-01] | – | – | – | – | downregulation of SERPINE1prom-Luc ([1]; positive control treatment): at least 50%
CCCCCCCCc1ccc(-c2ccc(C(=O)O)cc2)cc1 [AC-55649] | – | – | 0.59 | 106.55% | –
N#C/C(=C\c1ccc(O)c(O)c1)C(=O)NCc1ccccc1 [AG-490] | – | – | 0.47 | 64.03% | –
O=C(Nc1cccc(C(F)(F)F)c1)Nc1cc(S(=O)(=O)NC2CC2)ccc1-c1ccsc1 [AGI-6780] | – | – | – | – | dose-dependent change of SERPINE1 promoter activity [1]: dose dependent decrease in SERPINE1 promoter activity
CN(Cc1cnc2nc(N)nc(N)c2n1)c1ccc(C(=O)N[C@@H](CCC(=O)O)C(=O)O)cc1 [Abitrexate (Methotrexate), Methotrexate] | 56% | 55.6% | – | – | –
C=CCc1ccccc1OCC(O)CNC(C)C (centres unmarked) [Alprenolol hydrochloride] | 80% | 90.2% | – | – | –
CCCCc1oc2ccccc2c1C(=O)c1cc(I)c(OCCN(CC)CC)c(I)c1 [Amiodarone hydrochloride] | 59% | 86.9% | – | – | –
S=C(NCc1ccc2c(c1)OCO2)N1CCN(c2ncnc3c2oc2ccccc23)CC1 [Amuvatinib (MP-470)] | – | – | 0.37 and 0.23 | 140.20% and 213.43% | –
CN1CCc2cccc3c2[C@H]1Cc1ccc(O)c(O)c1-3 [Apomorphine hydrochloride hemihydrate] | 84% | 85.1% | – | – | –
Cc1cc(Nc2ncnc3ccc(NC4=NC(C)(C)CO4)cc23)ccc1Oc1ccn2ncnc2c1 [Arry-380] | 73% | 67.3% | – | – | –
C[N+]1(C)[C@@H]2CC[C@H]1C[C@@H](OC(=O)C(CO)c1ccccc1)C2 (some centres unmarked) [Atropine methyl nitrate] | 68% | 103% | – | – | –
CCCCCCCCCCCCC/C=C/[C@@H](O)[C@H](CO)NC(=O)CCCCCCC [C-8 Ceramide] | – | – | 0.54 | 70.74% | –
CS(=O)(=O)N1CCc2c(-c3cnc(N)nc3)nc(N3CCOCC3)nc21 [CH5132799] | 71% | 50.6% | – | – | –
CC1(C(=O)O)C2CCC(O2)C1(C)C(=O)O (centres unmarked) [Cantharidic Acid] | – | 74.6% | – | – | activity at 10 µM [1, 5]: 40%
NC(=O)c1ccc(-c2nc(-c3ccc4c(c3)OCCO4)c(-c3ccccn3)[nH]2)cc1 [D 4476] | – | – | 0.57 | 53.26% | –
COc1cccc(Nc2c(C(N)=O)cnc3c(C)cc(S(=O)(=O)c4cccc(C(=O)N(C)C)c4)cc23)c1 [GSK256066] | – | – | – | – | dose-dependent change of SERPINE1 promoter activity [1]: dose dependent decrease in SERPINE1 promoter activity
CC1=C(/C=C/C(C)=C/C=C/C(C)=C\C(=O)O)C(C)(C)CCC1 [Isotretinoin] | 37% | 84.1% | – | – | –

Compound | activity at 10 µM [1, 3] | viability at 10 µM [2, 4] | Avr FF/Renilla from DMSO [1, 3] | % Avr Renilla from DMSO [2, 4] | further results
CN([C@@H](Cc1ccc(OS(=O)(=O)c2cccc3cnccc23)cc1)C(=O)N1CCN(c2ccccc2)CC1)S(=O)(=O)c1cccc2cnccc12 [KN-62] | – | – | 0.43 | 67.80% | –
COc1ccc(S(=O)(=O)N(CCO)c2ccccc2CN(C)C/C=C/c2ccc(Cl)cc2)cc1 [KN-93] | – | – | 0.59 | 54.45% | –
COc1ccc(Br)cc1S(=O)(=O)NC(=O)/C=C/c1ccccc1Cc1ccc2ccccc2c1 [L-798106] | – | – | 0.13 | 68.99% | –
N[C@@H](CC(=O)O)C(=O)O [L-Aspartic acid] | 71% | 99.3% | – | – | –
CC1(C)CNc2cc(NC(=O)c3cccnc3NCc3ccncc3)ccc21 [Motesanib Diphosphate (AMG-706), Motesanib Diphosphate] | 70% | 50.9% | – | – | –
CCN(CC)CCCCNc1ncc2cc(-c3c(Cl)cccc3Cl)c(NC(=O)NC(C)(C)C)nc2n1 [PD-161570] | – | – | 0.39 | 74.13% | –
CNC(=O)c1ccc(C)c(-n2c(C)cc(OCc3ccc(F)cc3F)c(Br)c2=O)c1 [PH-797804] | 67% | 53% | – | – | –
CC(=O)Nc1nc(C)c(-c2ccc(Cl)c(S(=O)(=O)NCCO)c2)s1 [PIK-93] | – | – | – | 75.51% | Avr FF/Renilla from DMSO [1, 5]: 0.72
CCCCC[C@H](O)/C=C/[C@H]1C(=O)C[C@H](O)[C@@H]1C/C=C\CCCC(=O)NCCO [Prostaglandin D2 Ethanolamide] | – | – | 0.55 | 65.62% | –
CCCCCC(O)/C=C/C1C(=O)CC(O)C1C/C=C\CCCC(=O)OCC(O)CO (centres unmarked) [Prostaglandin D2-1-glyceryl ester] | – | – | 0.59 | 58.41% | –
CC(=O)O[C@@]12C[C@@H](C)[C@@]3(O)[C@@H](C=C(CO)C[C@]4(O)C(=O)C(C)=C[C@@H]34)[C@@H]1C2(C)C [Prostratin] | 55% | 146% | – | – | –
O=C(Nc1ccc2[nH]ncc2c1)C1CCC1 [Rhodblock 6] | – | – | 0.87 | 89.97% | –
CC[C@H](CO)Nc1nc(NCc2ccccc2)c2ncn(C(C)C)c2n1 [Roscovitine (Seliciclib, CYC202), Roscovitine] | – | 53.7% | – | – | activity at 10 µM [1]: 63%
CCSC(=N)Nc1ccc(C(F)(F)F)cc1 [S-ethyl N-[4-(trifluoromethyl)phenyl] Isothiourea (hydrochloride)] | 59% | 76.8% | – | – | –
Cn1cc(C2=C(c3ccc(Cl)cc3Cl)C(=O)NC2=O)c2ccccc21 [SB 216763] | – | – | 0.56 | 107.55% | –
NC(=O)c1ccc(-c2nc(-c3ccccn3)c(-c3ccc4c(c3)OCO4)[nH]2)cc1 [SB 431542] | – | – | 0.50 | 51.90% | –
Cc1cccc(-c2[nH]c(C(C)(C)C)nc2-c2ccc3nccnc3c2)n1 [SB-525334] | – | – | 0.37 | 51.73% | –
O=[N+]([O-])c1ccc(CNc2nc(NCc3cccc(C(F)(F)F)c3)nc3nc[nH]c23)cc1 [TNP] | – | – | – | – | Avr FF/Renilla from DMSO [1]: 0.88; % Avr Renilla from DMSO [2]: 80.47%
CCOC(=O)c1ccc(C#Cc2ccc3c(c2)C(C)(C)CCS3)nc1 [Tazarotene] | 59% | 67% | – | – | –
CCO.N#CC(=C(/N)Sc1ccccc1N)/C(C#N)=C(\N)Sc1ccccc1N [U0126-EtOH] | – | – | 0.62 | 76.21% | –
N#CC(=C(/N)Sc1ccccc1N)/C(C#N)=C(\N)Sc1ccccc1N [U0126] | – | – | – | – | activity at 10 µM [1]: 45%; viability at 10 µM [2]: 102%
CCCCC/C=C\C/C=C\C/C=C\C/C=C\CCCC(=O)NCc1ccoc1 [UCM707] | – | – | – | 88.05% | Avr FF/Renilla from DMSO [1, 5]: 0.57
CAY10587 | – | – | 0.56 | 72.88% | –
